Experimental data published in patent US8013144B2, “hnRNP K expression-inhibiting compound and siRNA sequence thereof” (Chang Gung University, priority 2009, dated 2011).

System: NPC-TW02 and NPC-TW02/TP
Experiment: cytotoxicity assay with 5′-DFUR, apoptosis assay (annexin V)
Assay type: cell-based
Conditions: TP over-expression, 72 hours
Procedure: Refer to FIG. 1A and FIG. 1B. A cell line of nasopharyngeal cancer NPC-TW02/TP is established to stably express exogenous TP. First, the TP-expression carrier pcDNA3.1-PT is transfected to the cell line. Next, the cell line is screened and then cultivated in a culture solution having 500 μg/ml G418. Next is performed a cytotoxicity assay, wherein NPC-TW02 and NPC-TW02/TP are respectively processed with 5′-DFUR (a product of Sigma-Aldrich, St. Louis, Mo., USA). Next, the cell lines are further cultivated for 72 hours. Next, the cell membranes are everted to expose phosphatidylserine. Then, phosphatidylserine is analyzed with the Vybrant® Apoptosis Assay Kit #2 (a product of Invitrogen).
Firstly, 2×10^5 cells are taken out and washed with PBS. Next, a buffer solution (10 mM HEPES, 140 mM NaCl, 2.5 mM CaCl2, pH 7.4) is used to adjust the solution to have a cell concentration of 2×10^6/mL. Next, 5 μl Alexa Fluor® 488 annexin V is added into […], and then the cell suspension reacts at an ambient temperature for 15 minutes. Next, the cell specimens (10000 events) are analyzed with a flow cytometer (a product of Becton Dickinson), as shown in FIG. 3. […] Then, phosphatidylserine is analyzed with the Vybrant® Apoptosis Assay Kit #2 (a product of Invitrogen).

**Q.** Which “sensitivity of nasopharyngeal cancer cells to 5′-DFUR (apoptosis)” value does the source give for `C[C@H]1O[C@@H](n2cc(F)c(=O)[nH]c2=O)[C@H](O)[C@@H]1O` [5′-DFUR, 5-fluoro-5′-deoxyuridine] here?
**A.** more sensitive
